Measured values reported in PubChem BioAssay AID2060615 (Molecular Pharmacology Branch, DTP, NCI, 2025).

Test system: 496974-208-R-J2-PDC complex spheroids, growth % test/control
Test: Anticancer human tumor 496974-208-R-J2-PDC patient-derived pancreatic carcinoma cell line growth inhibition [CLK]
Conditions: for IC50: curve of first compound; for viability, T/C: stronger effect = lower value
Procedure, shortened: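 Patient-derived tumor cells grown as complex spheroids with HUVEC endothelial cells and mesenchymal stem cells, treated with drug combinations. Concentrations descend in half-log steps from near clinical Cmax, or from 10 microM if Cmax unknown.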

[1] = second compound 0.0316 µM, first compound 0.0316 µM
[2] = second compound 0.0316 µM, first compound 0.1 µM
[3] = second compound 0.0316 µM, first compound 0.316 µM
[4] = second compound 0.0316 µM, first compound 1 µM
[5] = second compound 0.0316 µM, first compound 3.16 µM
[6] = second compound 0.0316 µM, first compound 10 µM
[7] = second compound 0.1 µM, first compound 0.0316 µM
[8] = second compound 0.1 µM, first compound 0.1 µM
[9] = second compound 0.1 µM, first compound 0.316 µM
[10] = second compound 0.1 µM, first compound 1 µM
[11] = second compound 0.1 µM, first compound 3.16 µM
[12] = second compound 0.1 µM, first compound 10 µM
[13] = second compound 0.316 µM, first compound 0.0316 µM
[14] = second compound 0.316 µM, first compound 0.1 µM
[15] = second compound 0.316 µM, first compound 0.316 µM
[16] = second compound 0.316 µM, first compound 1 µM
[17] = second compound 0.316 µM, first compound 3.16 µM
[18] = second compound 0.316 µM, first compound 10 µM
[19] = second compound 1 µM, first compound 0.0316 µM
[20] = second compound 1 µM, first compound 0.1 µM
[21] = second compound 1 µM, first compound 0.316 µM
[22] = second compound 1 µM, first compound 1 µM
[23] = second compound 1 µM, first compound 3.16 µM
[24] = second compound 1 µM, first compound 10 µM
[25] = second compound 3.16 µM, first compound 0.0316 µM
[26] = second compound 3.16 µM, first compound 0.1 µM
[27] = second compound 3.16 µM, first compound 0.316 µM
[28] = second compound 3.16 µM, first compound 1 µM
[29] = second compound 3.16 µM, first compound 3.16 µM
[30] = second compound 3.16 µM, first compound 10 µM
[31] = second compound 10 µM, first compound 0.0316 µM
[32] = second compound 10 µM, first compound 0.1 µM
[33] = second compound 10 µM, first compound 0.316 µM
[34] = second compound 10 µM, first compound 1 µM
[35] = second compound 10 µM, first compound 3.16 µM
[36] = second compound 10 µM, first compound 10 µM
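Further: spheroids exposed to the drugs for 7 days before readout.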
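Wherever viability, T/C is given: 100% = DMSO vehicle control wells.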

CC1(C)CCC(CN2CCN(c3ccc(C(=O)NS(=O)(=O)c4ccc(NCC5CCOCC5)c([N+](=O)[O-])c4)c(Oc4cnc5[nH]ccc5c4)c3)CC2)=C(c2ccc(Cl)cc2)C1 + CNC(=O)c1ccc(Nc2nc(OC3CCCC3)c3c(-c4ccc5nc(C)oc5c4)c[nH]c3n2)c(OC)c1
IC50 (second compound 0.0316 µM): 8.41 µM | IC50 (second compound 0.1 µM): 7.09 µM | IC50 (second compound 0.316 µM): 9.3 µM | IC50 (second compound 1 µM): 5.67 µM | IC50 (second compound 3.16 µM): 4.11 µM | IC50 (second compound 10 µM): 3.9 µM | viability, T/C [1]: 87.7% | viability, T/C [2]: 93.6% | viability, T/C [3]: 86.4% | viability, T/C [4]: 92.4% | viability, T/C [5]: 84.4% | viability, T/C [6]: 43.8% | viability, T/C [7]: 75.1% | viability, T/C [8]: 73.3% | viability, T/C [9]: 76.8% | viability, T/C [10]: 82.8% | viability, T/C [11]: 72.8% | viability, T/C [12]: 39.9% | viability, T/C [13]: 75.8% | viability, T/C [14]: 76.2% | viability, T/C [15]: 73.6% | viability, T/C [16]: 85.3% | viability, T/C [17]: 71% | viability, T/C [18]: 48.5% | viability, T/C [19]: 71% | viability, T/C [20]: 71.7% | viability, T/C [21]: 73.5% | viability, T/C [22]: 67.3% | viability, T/C [23]: 61.1% | viability, T/C [24]: 39.5% | viability, T/C [25]: 59.5% | viability, T/C [26]: 56.2% | viability, T/C [27]: 61.5% | viability, T/C [28]: 62.5% | viability, T/C [29]: 52.6% | viability, T/C [30]: 35.5% | viability, T/C [31]: 55.8% | viability, T/C [32]: 55.2% | viability, T/C [33]: 54.3% | viability, T/C [34]: 50.1% | viability, T/C [35]: 54.4% | viability, T/C [36]: 32.9%

CC1COCCN1c1cc(C2(S(C)(=N)=O)CC2)nc(-c2ccnc3[nH]ccc23)n1 (stereo unspecified) + CNC(=O)c1ccc(Nc2nc(OC3CCCC3)c3c(-c4ccc5nc(C)oc5c4)c[nH]c3n2)c(OC)c1
IC50 (second compound 0.0316 µM): 6.5 µM | IC50 (second compound 0.1 µM): 5.52 µM | IC50 (second compound 0.316 µM): 4.78 µM | IC50 (second compound 1 µM): 2.15 µM | IC50 (second compound 3.16 µM): 0.953 µM | IC50 (second compound 10 µM): 0.971 µM | viability, T/C [1]: 101% | viability, T/C [2]: 98.3% | viability, T/C [3]: 91.2% | viability, T/C [4]: 83.2% | viability, T/C [5]: 62.8% | viability, T/C [6]: 42.1% | viability, T/C [7]: 87.2% | viability, T/C [8]: 78.4% | viability, T/C [9]: 77.1% | viability, T/C [10]: 74.4% | viability, T/C [11]: 53.5% | viability, T/C [12]: 43% | viability, T/C [13]: 72.6% | viability, T/C [14]: 69.3% | viability, T/C [15]: 79% | viability, T/C [16]: 80% | viability, T/C [17]: 56.4% | viability, T/C [18]: 38.7% | viability, T/C [19]: 73.8% | viability, T/C [20]: 66.8% | viability, T/C [21]: 71% | viability, T/C [22]: 62.8% | viability, T/C [23]: 43.5% | viability, T/C [24]: 32.6% | viability, T/C [25]: 63.7% | viability, T/C [26]: 63.2% | viability, T/C [27]: 54.6% | viability, T/C [28]: 52.5% | viability, T/C [29]: 36.9% | viability, T/C [30]: 27.6% | viability, T/C [31]: 51.8% | viability, T/C [32]: 58% | viability, T/C [33]: 54.5% | viability, T/C [34]: 49.8% | viability, T/C [35]: 31.9% | viability, T/C [36]: 21.8%

Cn1ncnc1[C@H]1c2n[nH]c(=O)c3cc(F)cc(c23)N[C@@H]1c1ccc(F)cc1 + CNC(=O)c1ccc(Nc2nc(OC3CCCC3)c3c(-c4ccc5nc(C)oc5c4)c[nH]c3n2)c(OC)c1
IC50 (second compound 0.0316 µM): > 0.1 µM | IC50 (second compound 0.1 µM): > 0.1 µM | IC50 (second compound 0.316 µM): > 0.1 µM | IC50 (second compound 1 µM): > 0.1 µM | IC50 (second compound 3.16 µM): > 0.1 µM | IC50 (second compound 10 µM): > 0.1 µM | viability, T/C (second compound 0.0316 µM, first compound 0.000316 µM): 103% | viability, T/C (second compound 0.0316 µM, first compound 0.001 µM): 110% | viability, T/C (second compound 0.0316 µM, first compound 0.00316 µM): 95% | viability, T/C (second compound 0.0316 µM, first compound 0.01 µM): 100% | viability, T/C [1]: 98.2% | viability, T/C [2]: 85.7% | viability, T/C (second compound 0.1 µM, first compound 0.000316 µM): 77% | viability, T/C (second compound 0.1 µM, first compound 0.001 µM): 83.3% | viability, T/C (second compound 0.1 µM, first compound 0.00316 µM): 83.1% | viability, T/C (second compound 0.1 µM, first compound 0.01 µM): 94.6% | viability, T/C [7]: 74.6% | viability, T/C [8]: 78% | viability, T/C (second compound 0.316 µM, first compound 0.000316 µM): 82% | viability, T/C (second compound 0.316 µM, first compound 0.001 µM): 84% | viability, T/C (second compound 0.316 µM, first compound 0.00316 µM): 99.9% | viability, T/C (second compound 0.316 µM, first compound 0.01 µM): 80.4% | viability, T/C [13]: 78.3% | viability, T/C [14]: 67.9% | viability, T/C (second compound 1 µM, first compound 0.000316 µM): 72.4% | viability, T/C (second compound 1 µM, first compound 0.001 µM): 73.5% | viability, T/C (second compound 1 µM, first compound 0.00316 µM): 68.9% | viability, T/C (second compound 1 µM, first compound 0.01 µM): 76.7% | viability, T/C [19]: 74.9% | viability, T/C [20]: 65% | viability, T/C (second compound 3.16 µM, first compound 0.000316 µM): 69.3% | viability, T/C (second compound 3.16 µM, first compound 0.001 µM): 62.8% | viability, T/C (second compound 3.16 µM, first compound 0.00316 µM): 57.4% | viability, T/C (second compound 3.16 µM, first compound 0.01 µM): 61.5% | viability, T/C [25]: 67.2% | viability, T/C [26]: 65% | viability, T/C (second compound 10 µM, first compound 0.000316 µM): 55.5% | viability, T/C (second compound 10 µM, first compound 0.001 µM): 55% | viability, T/C (second compound 10 µM, first compound 0.00316 µM): 55.7% | viability, T/C (second compound 10 µM, first compound 0.01 µM): 54.1% | viability, T/C [31]: 54.2% | viability, T/C [32]: 52.7%
